Test systems include A498 renal; COLO 205 colon; DU-145 prostate; EKVX NSCLC; HCC-2998 colon; M14 melanoma; MDA-MB-435; MOLT-4 leukemia; NCI-H226 lung; OVCAR-4 ovarian; PC-3 prostate; SF-539 CNS; SK-MEL-2 melanoma; SK-MEL-5 melanoma; SNB-75 CNS; SR leukemia; SW-620 colon; UO-31 renal; ACHN renal.
Holding throughout (test): NCI tumour cell line growth inhibition, 48 h

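In this assay, cells in 96-well plates receive the compound at five concentrations for 48 hours. Endpoints are linearly interpolated between the surrounding concentrations. TGI: total growth inhibition.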 Some results are limits rather than exact numbers.

In the case of `Nc1[nH]c(=S)c2c(N)n[nH]c2c1C(=O)Nc1ccc(Cl)cc1`, the TGI with A498 renal, in the assay with COLO 205 colon, with DU-145 prostate, in the assay on EKVX NSCLC, in the assay with HCC-2998 colon and in the assay on M14 melanoma was more than 100 µM each time. Besides, the TGI with MDA-MB-435, with MOLT-4 leukemia, in the assay with NCI-H226 lung, in the assay on OVCAR-4 ovarian, in the assay with PC-3 prostate and in the assay with SF-539 CNS was more than 100 µM in each case. Further, the TGI in the assay on SK-MEL-2 melanoma, in the assay with SK-MEL-5 melanoma, in the assay on SNB-75 CNS, in the assay with SR leukemia, with SW-620 colon and in the assay on UO-31 renal was more than 100 µM throughout.

In the case of `COc1ccc(-c2nc3cc(C(F)(F)F)ccc3n2CC2CCCN3CCCCC23)cc1` (stereo not given), the TGI amounted to 26.2 µM with A498 renal; 29 µM in the assay with ACHN renal; 30.8 µM in the assay on DU-145 prostate; 24.5 µM in the assay with EKVX NSCLC; 24.5 µM with HCC-2998 colon; 25.6 µM in the assay on M14 melanoma. The TGI with MDA-MB-435 is 34.3 µM; with MOLT-4 leukemia it was 28.7 µM; in the assay on NCI-H226 lung, 32.3 µM; in the assay on OVCAR-4 ovarian, 39.7 µM; with PC-3 prostate it was 26.5 µM; in the assay on SF-539 CNS, 30.5 µM. Besides, the TGI in the assay with SK-MEL-2 melanoma amounted to 28.9 µM; with SK-MEL-5 melanoma, 27.5 µM; in the assay with SNB-75 CNS, 28.8 µM; with SR leukemia, 31.3 µM; in the assay with SW-620 colon, 28.5 µM; in the assay on UO-31 renal, 38.8 µM.

Take `Cc1nc2cccc([N+](=O)[O-])c2n1CCCN(C)C`: the TGI in the assay on A498 renal, with ACHN renal, in the assay on COLO 205 colon, with DU-145 prostate, in the assay with EKVX NSCLC and in the assay with HCC-2998 colon was more than 100 µM in each case. The TGI with M14 melanoma, in the assay on MDA-MB-435, in the assay on NCI-H226 lung, with OVCAR-4 ovarian, with PC-3 prostate and with SK-MEL-2 melanoma was more than 100 µM in each case. Besides, the TGI with SK-MEL-5 melanoma, in the assay with SNB-75 CNS, with SR leukemia, with SW-620 colon and in the assay on UO-31 renal was more than 100 µM in each case.

Regarding `Cc1ccc(NC(=O)/C(=N\NC(N)=O)c2c(O)c3ccccc3[nH]c2=O)cc1`, the TGI with A498 renal, in the assay on ACHN renal, in the assay with COLO 205 colon, in the assay with DU-145 prostate, with HCC-2998 colon and with M14 melanoma was more than 100 µM each time. The TGI in the assay with MDA-MB-435, in the assay with MOLT-4 leukemia, in the assay with NCI-H226 lung, in the assay with OVCAR-4 ovarian, in the assay on PC-3 prostate and with SF-539 CNS was more than 100 µM throughout. Further, the TGI with SK-MEL-2 melanoma, in the assay on SK-MEL-5 melanoma, in the assay on SNB-75 CNS, with SR leukemia, in the assay on SW-620 colon and in the assay with UO-31 renal was more than 100 µM throughout.

Turning to `O=C(CCc1ccc(O)cc1)NCCCNC(=O)CCc1ccc(O)cc1`, the TGI with A498 renal, in the assay on ACHN renal, with COLO 205 colon, with DU-145 prostate, in the assay with HCC-2998 colon and in the assay with M14 melanoma was more than 100 µM throughout. Moreover, the TGI with MDA-MB-435, in the assay on MOLT-4 leukemia, with NCI-H226 lung, in the assay on OVCAR-4 ovarian, in the assay with PC-3 prostate and with SF-539 CNS was more than 100 µM each time. In addition, the TGI with SK-MEL-2 melanoma, in the assay with SK-MEL-5 melanoma, in the assay with SNB-75 CNS, in the assay with SR leukemia, with SW-620 colon and with UO-31 renal was more than 100 µM each time.

For `N=C(N)SCc1ccc(N=C=S)cc1`, the TGI with A498 renal was 26.9 µM; with ACHN renal, 26.1 µM; with COLO 205 colon, 28.2 µM; with DU-145 prostate it was 29.5 µM; with EKVX NSCLC, 35.5 µM; with HCC-2998 colon, 30.4 µM. In addition, the TGI with MDA-MB-435 is 26 µM; in the assay with MOLT-4 leukemia, more than 100 µM; with NCI-H226 lung, 34.6 µM; with OVCAR-4 ovarian, 27.4 µM; with PC-3 prostate, 30.1 µM; with SF-539 CNS it was 27.3 µM. Further, the TGI was 23 µM in the assay with SK-MEL-2 melanoma; 27.2 µM in the assay with SK-MEL-5 melanoma; 21.9 µM in the assay on SNB-75 CNS; more than 100 µM with SR leukemia; 29.1 µM in the assay with SW-620 colon; 25 µM in the assay on UO-31 renal.

With `Nc1ccc(OCCCc2c(-c3ccccc3)nc(N)[nH]c2=O)cc1`, the TGI in the assay with A498 renal, with ACHN renal, in the assay on COLO 205 colon, with DU-145 prostate, in the assay on EKVX NSCLC and with HCC-2998 colon was more than 100 µM in each case. Also, the TGI in the assay on M14 melanoma, in the assay on MDA-MB-435, in the assay on MOLT-4 leukemia, with NCI-H226 lung, in the assay on OVCAR-4 ovarian and with PC-3 prostate was more than 100 µM throughout. In addition, the TGI in the assay with SF-539 CNS, in the assay on SK-MEL-5 melanoma, in the assay with SNB-75 CNS, in the assay on SR leukemia, in the assay with SW-620 colon and in the assay on UO-31 renal was more than 100 µM throughout.

For the origin of these results see PubChem BioAssay (NCI).
